Structures can show the parent of a compound that is named as a salt.
Target: Prostate-specific antigen (Homo sapiens) (UniProt P07288)
Assay: Inhibition of Prostate specific antigen PSA (Serine Protease)

Chain of Prostate-specific antigen (Homo sapiens) (P07288 whole entry, looked up): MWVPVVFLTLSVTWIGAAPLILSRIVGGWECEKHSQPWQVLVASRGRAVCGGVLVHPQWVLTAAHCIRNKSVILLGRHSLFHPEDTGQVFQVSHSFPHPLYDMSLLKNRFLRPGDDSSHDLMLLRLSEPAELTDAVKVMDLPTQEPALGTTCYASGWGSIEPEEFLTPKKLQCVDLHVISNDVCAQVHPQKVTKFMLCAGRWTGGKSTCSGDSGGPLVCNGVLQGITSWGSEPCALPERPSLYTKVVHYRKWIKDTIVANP

Compound | IC50 [µM]
Cc1ccc(S(=O)(=O)N2C(=O)[C@@H](Cc3ccccc3)[C@H]2C(=O)OCc2ccccc2)cc1 [3-Benzyl-4-oxo-1-(toluene-4-sulfonyl)-azetidine-2-carboxylic acid benzyl ester] | > 30
O=C(OCc1ccccc1)[C@@H]1[C@H](Cc2ccc(O)cc2)C(=O)N1C(=O)c1ccccc1 [1-Benzoyl-3-(4-hydroxy-benzyl)-4-oxo-azetidine-2-carboxylic acid benzyl ester] | 9.14
O=C(O)c1ccc(C(=O)OC[C@@H]2[C@H](Cc3ccccc3)C(=O)N2C(=O)c2ccccc2)cc1 [Terephthalic acid mono-(1-benzoyl-3-benzyl-4-oxo-azetidin-2-ylmethyl) ester] | > 100
O=C(O)c1ccc(COC(=O)[C@@H]2[C@H](Cc3ccccc3)C(=O)N2C(=O)c2ccccc2)cc1 [1-Benzoyl-3-benzyl-4-oxo-azetidine-2-carboxylic acid 4-carboxy-benzyl ester] | 24.3
O=C(OC[C@@H]1[C@H](Cc2ccccc2)C(=O)N1S(=O)(=O)c1ccc([N+](=O)[O-])cc1)c1ccccc1 [Benzoic acid 3-benzyl-1-(4-nitro-benzenesulfonyl)-4-oxo-azetidin-2-ylmethyl ester] | 11.5
O=C(O)c1ccc(COC(=O)[C@@H]2[C@H](Cc3ccccc3)C(=O)N2C(=O)Cc2cccc(C(=O)O)c2)cc1 [3-Benzyl-1-[2-(3-carboxy-phenyl)-acetyl]-4-oxo-azetidine-2-carboxylic acid 4-carboxy-benzyl ester] | > 30
O=C(OCc1ccccc1)c1cccc(CC(=O)N2C(=O)[C@@H](Cc3ccccc3)[C@H]2COC(=O)c2ccccc2)c1 [3-[2-(2-Benzoyloxymethyl-3-benzyl-4-oxo-azetidin-1-yl)-2-oxo-ethyl]-benzoic acid benzyl ester] | > 100

Stronger by IC50, values ahead:

IC50 [µM] | Compound
4.79 | Cc1ccc(S(=O)(=O)N2C(=O)[C@@H](Cc3ccccc3)[C@H]2COC(=O)c2ccccc2)cc1 [Benzoic acid 3-benzyl-4-oxo-1-(toluene-4-sulfonyl)-azetidin-2-ylmethyl ester]
3.08 | O=C(OC[C@@H]1[C@H](Cc2ccccc2)C(=O)N1S(=O)(=O)c1ccccc1)c1ccccc1 [Benzoic acid 1-benzenesulfonyl-3-benzyl-4-oxo-azetidin-2-ylmethyl ester]
2.19 | CCS(=O)(=O)N1C(=O)[C@@H](Cc2ccccc2)[C@H]1COC(=O)c1ccccc1 [Benzoic acid 3-benzyl-1-ethanesulfonyl-4-oxo-azetidin-2-ylmethyl ester]
1.59 | O=C(OC[C@@H]1[C@H](Cc2ccccc2)C(=O)N1C(=O)c1ccccc1)c1ccccc1 [Benzoic acid 1-benzoyl-3-benzyl-4-oxo-azetidin-2-ylmethyl ester]
1.34 | NCc1ccc(COC(=O)[C@@H]2[C@H](Cc3ccccc3)C(=O)N2C(=O)Cc2cccc(C(=O)OCc3ccccc3)c2)cc1 [3-Benzyl-1-[2-(3-benzyloxycarbonyl-phenyl)-acetyl]-4-oxo-azetidine-2-carboxylic acid 4-aminomethyl-benzyl ester; TFA]

From BindingDB's records for doi:10.1021/jm000145g (University of Oxford, 2001)
